Reference: patent publication US20250361230A1, “LATS Inhibitors and Uses Thereof” (The USA, as Represented by the Secretary, Dept. of Heath …, priority 2022, published 2025)

What was measured:
[1] = biological target: T1, AKT Kinase-NanoLuc fusion in HEK-293 cells (Homo sapiens, UniProt P31749); experiment: NanoBRET target engagement assay in transfected HEK-293 cells, AKT; assay type: cell-based; conditions: Table 28, NanoBRET, HEK-293 cells; read-out: AKT1 (Cellular) IC50
T1 construct: host or cells: HEK-293
T1 sequence (P31749 whole entry, the tested form may be a part): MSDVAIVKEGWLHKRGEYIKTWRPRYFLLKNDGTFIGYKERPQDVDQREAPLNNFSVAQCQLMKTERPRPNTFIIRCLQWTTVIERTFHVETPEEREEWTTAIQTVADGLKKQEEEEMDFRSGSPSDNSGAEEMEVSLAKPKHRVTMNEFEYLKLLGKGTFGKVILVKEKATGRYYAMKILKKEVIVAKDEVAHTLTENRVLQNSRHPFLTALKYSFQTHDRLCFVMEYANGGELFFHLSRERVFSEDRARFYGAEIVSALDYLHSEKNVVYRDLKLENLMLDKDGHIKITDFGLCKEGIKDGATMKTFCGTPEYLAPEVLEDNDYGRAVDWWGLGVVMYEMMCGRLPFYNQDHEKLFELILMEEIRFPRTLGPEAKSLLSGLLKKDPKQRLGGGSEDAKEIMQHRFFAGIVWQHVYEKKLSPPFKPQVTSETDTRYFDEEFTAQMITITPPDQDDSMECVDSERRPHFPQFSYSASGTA
Excerpt: (§1) The NanoBRET™ assay measures kinase engagement in real time in the context of the intact cell. The assay uses a Kinase-NanoLuc® fusion vector expressing a kinase protein to which a luciferase tag has been added, a cell-permeant fluorescent NanoBRET™ tracer, a NanoLuc® substrate, and an extracellular NanoLuc® inhibitor. Upon expression of the luciferase-tagged kinase, cells will produce a strong BRET signal only in the presence of the NanoBRET™ tracer. The extracellular NanoLuc® inhibitor ensures that the BRET signal observed emanates only from live cells. Because the BRET signal has tight distance constraints, addition of the test compound will decrease the BRET signal if the compound competes with the NanoBRET™ tracer for binding to the kinase domain. Under the appropriate tracer conditions established by the manufacturer, quantitative intracellular affinity and relative potency can then be determined using Mass Action model equations.
(§2) HEK-293 cells were purchased from ATCC. FuGENEHD Transfection Reagent, Kinase-NanoLuc® fusion plasmids, Transfection Carrier DNA, NanoBRET™ Tracers and dilution buffer, NanoBRET™ Nano-Glo Substrate, Extracellular NanoLuc® Inhibitor were obtained from Promega.
(§3) Assays were conducted following Promega assay protocol with some modifications as described further below. HEK-293 Cells were transiently transfected with Kinase-NanoLuc® Fusion Vector DNA by FuGENE HD Transfection Reagent. Test compounds were delivered into 384 well assay plate by Echo 550 (Labcyte Inc, Sunnyvale, CA). Transfected cells were harvested and mixed with NanoBRET™ Tracer Reagent and dispensed into 384 well plates and incubated at 37° C. in 5% CO2 cell culture incubator for 1 hour. The NanoBRET™ Nano-Glo Substrate plus Extracellular NanoLuc® Inhibitor Solution were added into the wells of the assay plate and incubated for 2-3 minutes at room temperature. The donor emission wavelength (460 nm) and acceptor emission wavelength (600 nm) were measured in the EnVision plate reader. The BRET Ratios were calculated. BRET Ratio=[(Acceptor sample÷Donor sample)−(Acceptor no-tracer control÷Donor no-tracer control)]. The IC50 values of compounds were calculated with Prism GraphPad program.
(§4) • 1. Transient Transfection of HEK-293 Cells NanoLuc® Fusion Vector DNA • 1). Cultivate HEK-293 cells (70-80% confluence) appropriately prior to assay. Trypsinize and collect HEK-293 cells. • 2). Prepare lipid: DNA complexes as follows: • a. Prepare a […] solution of DNA in Opti-MEM™ without serum that consists of the following ratios of carrier DNA and DNA encoding NanoLuc® fusion. 9.0 µg/mL of Transfection Carrier DNA, […] of NanoLuc® fusion vector DNA and 1 mL of Opti-MEM™ without phenol red. Mix thoroughly. • b. Add 30 μl of FuGENE HD Transfection Reagent into each milliliter of DNA mixture to form lipid: DNA complex. • c. Mix by inversion 10 times. • d. Incubate at ambient temperature for 20 minutes to allow complexes to form. • 3). In a sterile, conical tube, mix 1 part of lipid: DNA complex with 20 parts of HEK-293 cells in suspension. Mix gently by inversion 5 times. • 4). Dispense cells+lipid: DNA complex into a sterile tissue culture dish and incubate for 22-24 hours. • 2. Addition of Test Compounds (dry plate shooting): Each test compound is delivered from the compound source plate to the wells of 384-well white NBS plate by Echo 550. • 3. Preparation of Cells with NanoBRET™ Tracer Reagent • 1). Remove medium from dish with transfected HEK-293 cells via aspiration, trypsinize and allow cells to dissociate from the dish. • 2). Neutralize trypsin using medium containing serum and centrifuge at 200× g for 5 minutes to pellet the cells. Adjust the cell density to 2×10^5 cells/mL in Opti-MEM™ without phenol red. • 3). Prepare Complete 20× NanoBRET™ Tracer Reagent with Tracer Dilution Buffer. • 4). Dispense one part of Complete 20× NanoBRET™ Tracer Reagent to 20 parts of cells in the tube. Mix gently by inversion 10 times. • 5). […]

[2] = biological target: T2, LATS1 Kinase-NanoLuc fusion in HEK-293 cells (Homo sapiens, UniProt O95835); experiment: NanoBRET target engagement assay in transfected HEK-293 cells, LATS1; assay type: cell-based; conditions: Table 28, NanoBRET, HEK-293 cells; read-out: LATS1 (Cellular) IC50
T2 construct: host or cells: HEK-293
T2 sequence (O95835 1-1130): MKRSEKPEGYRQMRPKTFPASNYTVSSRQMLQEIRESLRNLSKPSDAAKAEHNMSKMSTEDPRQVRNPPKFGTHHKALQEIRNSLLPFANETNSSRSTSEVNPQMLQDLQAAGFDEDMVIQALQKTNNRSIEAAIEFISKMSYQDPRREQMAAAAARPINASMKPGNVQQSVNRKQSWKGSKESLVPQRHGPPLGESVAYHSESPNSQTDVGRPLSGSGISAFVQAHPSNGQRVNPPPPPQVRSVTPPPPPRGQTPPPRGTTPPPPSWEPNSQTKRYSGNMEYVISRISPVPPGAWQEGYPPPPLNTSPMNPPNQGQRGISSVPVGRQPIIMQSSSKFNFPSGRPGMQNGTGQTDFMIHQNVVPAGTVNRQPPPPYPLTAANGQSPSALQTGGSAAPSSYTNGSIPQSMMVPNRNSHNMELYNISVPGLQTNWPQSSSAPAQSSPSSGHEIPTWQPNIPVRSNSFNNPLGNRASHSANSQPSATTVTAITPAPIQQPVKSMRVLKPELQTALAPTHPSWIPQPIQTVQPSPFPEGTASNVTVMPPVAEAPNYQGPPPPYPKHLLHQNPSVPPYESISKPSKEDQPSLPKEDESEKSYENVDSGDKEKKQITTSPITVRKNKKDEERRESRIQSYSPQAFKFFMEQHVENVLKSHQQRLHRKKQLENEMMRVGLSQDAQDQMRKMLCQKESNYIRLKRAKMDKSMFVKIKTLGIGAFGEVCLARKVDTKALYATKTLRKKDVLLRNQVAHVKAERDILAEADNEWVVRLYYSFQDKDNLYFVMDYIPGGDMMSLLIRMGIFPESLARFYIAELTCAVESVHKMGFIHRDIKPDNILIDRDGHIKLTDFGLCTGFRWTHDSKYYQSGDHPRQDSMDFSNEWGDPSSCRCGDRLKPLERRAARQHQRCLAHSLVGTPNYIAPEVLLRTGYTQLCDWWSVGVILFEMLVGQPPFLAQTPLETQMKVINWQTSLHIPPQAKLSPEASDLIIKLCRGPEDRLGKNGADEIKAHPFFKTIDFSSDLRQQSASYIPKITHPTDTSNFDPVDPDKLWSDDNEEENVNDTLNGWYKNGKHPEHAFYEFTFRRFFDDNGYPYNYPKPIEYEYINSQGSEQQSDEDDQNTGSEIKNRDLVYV
Excerpt: as §1, §2, §3, §4

Row | Structure (SMILES) | IC50 [1] [nM] | IC50 [2] [nM]
1 | C[C@@H]1CNC[C@H](C)[C@@]1(O)c1ccc(-c2ccnc3[nH]cc(F)c23)cc1Cl [Compound 1, (3S,4S,5R)-4-(2-chloro-4-(3-fluoro-1H-pyrrolo[2,3-b]pyridin-4-yl)phenyl)-3,5-dimethylpiperidin-4-ol] | 21200 | 203
2 | C[C@@H]1CNC[C@H](C)[C@@]1(O)c1ccc(-c2ccnc3[nH]cc(F)c23)cc1 [Compound 2, (3R,4s,5S)-4-(4-(3-fluoro-1H-pyrrolo[2,3-b]pyridin-4-yl)phenyl)-3,5-dimethylpiperidin-4-ol] | > 50000 | 550
3 | C[C@@H]1CNC[C@H](C)[C@@]1(O)c1ccc(-c2ccnc3[nH]cc(F)c23)cc1F [Compound 7, (3S,4s,5R)-4-(2-fluoro-4-(3-fluoro-1H-pyrrolo[2,3-b]pyridin-4-yl)phenyl)-3,5-dimethyl piperidin-4-ol] | 8640 | 247
4 | C[C@@H]1CNC[C@H](C)[C@@]1(O)c1ccc(-c2ccnc3[nH]cc(F)c23)nc1 [Compound 8, (3S,4s,5R)-4-(6-(3-fluoro-1H-pyrrolo[2,3-b]pyridin-4-yl)pyridin-3-yl)-3,5-dimethylpiperidin-4-ol] | 8640 | 60
5 | Cc1cc(-c2ccnc3[nH]cc(F)c23)ccc1[C@@]1(O)[C@H](C)CNC[C@@H]1C [Compound 9, (3S,4s,5R)-4-(4-(3-fluoro-1H-pyrrolo[2,3-b]pyridin-4-yl)-2-methylphenyl)-3,5-dimethylpiperidin-4-ol] | 15200 | 44.6
6 | C[C@@H]1CNC[C@H](C)[C@@]1(O)c1c(F)cc(-c2ccnc3[nH]cc(F)c23)cc1F [Compound 13] | 16100 | 1450
7 | C[C@@H]1CNC[C@H](C)[C@@]1(O)c1ccc(-c2ccnc3[nH]cc(F)c23)cc1OC(F)(F)F [Compound 14, (3S,4s,5R)-4-(4-(3-fluoro-1H-pyrrolo[2,3-b]pyridin-4-yl)-2-(trifluoromethoxy)phenyl)-3,5-dimethylpiperidin-4-ol] | 4950 | 2130
8 | C[C@@H]1CN(Cc2ccccn2)C[C@H](C)[C@@]1(O)c1c(F)cc(-c2ccnc3[nH]cc(F)c23)cc1F [Compound 17, (3S,4s,5R)-4-(2,6-difluoro-4-(3-fluoro-1H-pyrrolo[2,3-b]pyridin-4-yl)phenyl)-3,5-dimethyl-1-(pyridin-2-ylmethyl)piperidin-4-ol] | 24100 | 409
9 | C[C@@H]1CN(C)C[C@H](C)[C@@]1(O)c1cnc(-c2ccnc3[nH]cc(F)c23)cc1Cl [Compound 22, (3S,4s,5R)-4-(4-chloro-6-(3-fluoro-1H-pyrrolo[2,3-b]pyridin-4-yl)pyridin-3-yl)-1,3,5-trimethylpiperidin-4-ol] | 2510 | 505
10 | Cc1cc(-c2ccnc3[nH]cc(F)c23)ccc1[C@@]1(O)[C@H](C)CN(C2COC2)C[C@@H]1C [Compound 24, (3S,4s,5R)-4-(4-(3-fluoro-1H-pyrrolo[2,3-b]pyridin-4-yl)-2-methylphenyl)-3,5-dimethyl-1-(oxetan-3-yl)piperidin-4-ol] | 56200 | 127
11 | Cc1cc(-c2ccnc3[nH]cc(F)c23)ccc1[C@@]1(O)[C@H](C)CN(C(C)C)C[C@@H]1C [Compound 29, (3S,4s, 5R)-4-(4-(3-fluoro-1H-pyrrolo[2,3-b]pyridin-4-yl)-2-methylphenyl)-1-isopropyl-3,5-dimethylpiperidin-4-ol] | 17000 | 86
12 | Cc1cc(-c2ccnc3[nH]cc(F)c23)cc(F)c1C1(O)[C@H](C)CN(C2COC2)C[C@@H]1C (stereo partly drawn) [Compound 30, (3S,5R)-4-(2-fluoro-4-(3-fluoro-1H-pyrrolo[2,3-b]pyridin-4-yl)-6-methylphenyl)-3,5-dimethyl-1-(oxetan-3-yl)piperidin-4-ol] | > 30000 | 58.2
13 | C[C@@H]1CN(C2CCS(=O)(=O)CC2)C[C@H](C)C1(O)c1c(F)cc(-c2ccnc3[nH]cc(F)c23)cc1F (stereo partly drawn) [Compound 31, 4-((3S,5R)-4-(2,6-difluoro-4-(3-fluoro-1H-pyrrolo[2,3-b]pyridin-4-yl)phenyl)-4-hydroxy-3,5-dimethylpiperidin-1-yl)tetrahydro-2H-thiopyran 1,1-dioxide] | 39400 | 1190
14 | C[C@@H]1CN(C)C[C@H](C)[C@@]1(O)c1ccc(-c2ccnc3[nH]cc(F)c23)cc1 [Compound 39, (3R,4s,5S)-4-(4-(3-fluoro-1H-pyrrolo[2,3-b]pyridin-4-yl)phenyl)-1,3,5-trimethylpiperidin-4-ol] | > 50000 | 19000
15 | C[C@@H]1CN(C)C[C@H](C)[C@@]1(O)c1ccc(-c2ccnc3[nH]cc(F)c23)nc1 [Compound 41, (3R,4s,5S)-4-(6-(3-fluoro-1H-pyrrolo[2,3-b]pyridin-4-yl)pyridin-3-yl)-1,3,5-trimethylpiperidin-4-ol] | 8640 | 115
16 | C[C@@H]1CN(C2COC2)C[C@H](C)[C@@]1(O)c1c(F)cc(-c2ccnc3[nH]cc(F)c23)cc1F [Compound 45, (3S,4s,5R)-4-(2,6-difluoro-4-(3-fluoro-1H-pyrrolo[2,3-b]pyridin-4-yl)phenyl)-3, S-dimethyl-1-(oxetan-3-yl)piperidin-4-ol] | > 30000 | 813
17 | Cc1cc(-c2ccnc3[nH]cc(F)c23)ncc1[C@@]1(O)[C@H](C)CN(C2CCC2)C[C@@H]1C [Compound 48, (3R,4s,5S)-1-cyclobutyl-4-(6-(3-fluoro-1H-pyrrolo[2,3-b]pyridin-4-yl)-4-methylpyridin-3-yl)-3,5-dimethylpiperidin-4-ol] |  | 12600
